Consider 15 molecules from patent publication US6972286B2, “Oxazolidinones having a benzannulated 6- or 7-membered heterocycle” (Pharmacia and Upjohn Company, priority 2000, dated 2005).

Converted amounts (≈) assume the structure as drawn. A value given as a limit tells only on which side of the number the result lay.

One data set relates to Streptococcus pneumoniae. Nature of the data set: Minimum inhibitory concentration (MIC) by agar dilution. The note with it: in vitro, agar dilution (NCCLS 1993), Streptococcus pneumoniae strain SPNE 9912; read-out: Antibacterial Activity Minimum Inhibitory Concentration SPNE 9912. It is filed as cell-based. The text has this: The oxazolidinone antibacterial agents of this invention have useful activity against a variety of organisms. The in vitro activity of compounds of this invention can be assessed by standard testing procedures such as the determination of minimum inhibitory concentration (MIC) by agar dilution as described in “Approved Standard. Methods for Dilution Antimicrobial Susceptibility Tests for Bacteria That Grow Aerobically”, 3rd. ed., published 1993 by the National Committee for Clinical Laboratory Standards, Villanova, Pa. USA.
Background: In agar dilution, organisms are placed on agar that contains the substance at set levels.

On to `CC(=S)NC[C@H]1CN(c2ccc3c(c2)CCS(=O)(=O)C3)C(=O)O1` [Example 12, (+)-N-[[(5S)-3-(3,4-Dihydro-2,2-dioxido-1H-2-benzothiopyran-6-yl)-2-oxo-5-oxazolidinyl]methyl]ethanethioamide], for which the melting point (as a rule, the temperature of the solid-liquid transition) was 187 °C (dec.). For the same molecule, in the data set with Streptococcus pneumoniae, the MIC was found to be 1 µg/mL (≈ 2.82 µM).
As to `CC(=O)NC[C@H]1CN(c2ccc3c(c2)CCSC3)C(=O)O1` [Example 10, (−)-N-[[(5S)-3-(3,4-Dihydro-1H-2-benzothiopyran-6-yl)-2-oxo-5-oxazolidinyl]methyl]acetamide], the melting point was 112 to 114 °C (dec.). Moreover, in the data set on Streptococcus pneumoniae, the MIC was 1 µg/mL (≈ 3.26 µM).
Consider `CC(=S)NC[C@H]1CN(c2ccc3c(c2)COCC3)C(=O)O1` [Example 13, (+)-N-[[(5S)-3-(3,4-Dihydro-1H-2-benzopyran-7-yl)-2-oxo-5-oxazolidinyl]methyl]ethanethioamide], for which the melting point is 165 °C (dec.). In the data set on Streptococcus pneumoniae, the MIC was determined as 1 µg/mL (≈ 3.26 µM).
For `CC(=S)NC[C@H]1CN(c2ccc3c(c2)CCSC3)C(=O)O1` [Example 11, (+)-N-[[(5S)-3-(3,4-Dihydro-1H-2-benzothiopyran-6-yl)-2-oxo-5-oxazolidinyl]methyl]ethanethioamide], the melting point is 112 to 114 °C (dec.). The MIC with Streptococcus pneumoniae came to 0.25 µg/mL (≈ 0.775 µM).
For `CC(=O)NC[C@H]1CN(c2ccc3c(c2)CCN(C(=O)CO)CC3)C(=O)O1` [Example 24, N-{[(55)-3-(3-Glycoloyl-1,2,4,5-tetrahydro-1H-3-benzazepin-7-yl)-2-oxo-1,3-oxazolidin-5-yl]methyl}acetamide], the MIC in the data set with Streptococcus pneumoniae is < 0.5 µg/mL.
Same read-out and setting: the same measure for `CC(=O)NC[C@H]1CN(c2ccc3c(c2)CCN(C(=O)Cc2ccc(C(F)(F)F)cc2)CC3)C(=O)O1` [Example 33]: 2 µg/mL (≈ 4.09 µM); for `CC(=O)NC[C@H]1CN(c2ccc3c(c2)CCSCC3)C(=O)O1` [Example 47, N-[[(5S)-2-Oxo-3-(1,2,4,5-tetrahydro-3-benzothiepin-7-yl)-5-oxazolidinyl]methyl]acetamide]: 2 µg/mL (≈ 6.24 µM); for `CC(=O)NC[C@H]1CN(c2ccc3c(c2)CCCN(C=O)C3)C(=O)O1` [Example 36, N-{[(5S)-3-(2-Formyl-1,3,4,5-tetrahydro-1H-2-benzazepin-7-yl)-2-oxo-1,3-oxazolidin-5-yl]methyl}acetamide]: < 0.5 µg/mL.
Consider `CC(=O)CCCC(=O)N1CCc2ccc(N3C[C@H](CNC(C)=O)OC3=O)cc2CC1` [Example 35, N-({(5S)-2-Oxo-3-[3-(5-oxohexanoyl)-1,2,4,5-tetrahydro-1H-3-benzazepin-7-yl]-1,3-oxazolidin-5-yl}methyl)acetamide], for which, in the data set with Streptococcus pneumoniae, the MIC came out at 1 µg/mL (≈ 2.41 µM).
Still for that read-out and setting: as for `CC(=O)NC[C@H]1CN(c2ccc3c(c2)CCN(c2nnc(N)s2)CC3)C(=O)O1` [Example 42, N-({(5S)-3-[3-(5-Amino-1,3,4-thiadiazol-2-yl)-1,2,4,5-tetrahydro-1H-3-benzazepin-7-yl]-2-oxo-1,3-oxazolidin-5-yl}methyl)acetamide], the figure is 0.5 µg/mL (≈ 1.24 µM).
The same measure, in the same setting: as for `CC(=O)NC[C@H]1CN(c2ccc3c(c2)CSCC3)C(=O)O1` [Example 14, (−)-N-[[(5S)-3-(3,4-Dihydro-1H-2-benzothiopyran-7-yl)-2-oxo-5-oxazolidinyl]methyl]acetamide], the figure is 0.5 µg/mL (≈ 1.63 µM); as for `CC(=O)NC[C@H]1CN(c2ccc3c(c2)CCN(c2nnc(NC=O)s2)CC3)C(=O)O1` [Example 45, N-[((5S)-3-{3-[5-(Formylamino)-1,3,4-thiadiazol-2-yl]-1,2,4,5-tetrahydro-1H-3-benzazepin-7-yl}-2-oxo-1,3-oxazolidin-5-yl)methyl]acetamide], 0.5 µg/mL (≈ 1.16 µM).
`CC(=O)NC[C@H]1CN(c2ccc3c(c2)CCN(C(=O)Cc2ccc(I)cc2)CC3)C(=O)O1` [Example 31, N-[((5S)-3-{3-[(4-Iodophenyl)acetyl]-1,2,4,5-tetrahydro-1H-3-benzazepin-7-yl}-2-oxo-1,3-oxazolidin-5-yl)methyl]acetamide]: the MIC in the data set with Streptococcus pneumoniae worked out at 1 µg/mL (≈ 1.83 µM).
As to `CC(=S)NC[C@H]1CN(c2ccc3c(c2)CCN(C(=O)CO)C3)C(=O)O1` [Example 7, (+)-N-[[(5S)-3-[2-[(Hydroxy)acetyl]-1,2,3,4-tetrahydro-6-isoquinolinyl]-2-oxo-5-oxazolidinyl]methyl]ethanethioamide], the MIC with Streptococcus pneumoniae was < 0.5 µg/mL.
For `CC(=S)NC[C@H]1CN(c2ccc3c(c2)CCS(=O)(=O)CC3)C(=O)O1` [Example 50, N-[[(5S)-2-Oxo-3-(1,2,4,5-tetrahydro-3,3-dioxido-3-benzothiepin-7-yl)-5-oxazolidinyl]methyl]ethanethioamide], the MIC in the data set with Streptococcus pneumoniae stood at 1 µg/mL (≈ 2.71 µM).
